Laboratory results taken from US10363257B2 (ZENITH EPIGENETICS LTD., priority 2013, dated 2019).
pIC50: −log10 of the molar value.

What was measured:
c-myc = test: Inhibition of c-myc expression (mRNA, real-time PCR) in MV4-11 cells; type: cell-based; conditions: Human AML MV4-11 cells, 3 h, cMYC mRNA
How it was run: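 MV4-11 cells treated 3 h at 37° C with increasing compound concentrations or 0.1% DMSO, in triplicate. cMYC mRNA quantified by one-step TaqMan real-time PCR, Ct normalized to internal control (Cyclophilin primers used), fold expression relative to control.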

[1] = biological target: T1, Brd4 bromodomain 1 (BRD4(1)) (Homo sapiens, UniProt O60885); test: Inhibition of tetra-acetylated histone H4 binding to Brd4 bromodomain 1 (TR-FRET); conditions: tetra-acetylated histone H4 peptide, first bromodomain of Brd4
T1 construct: made in house; host or cells: E. coli BL21(DE3)
How it was run: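 His-tagged BRD4(1) from E. coli (200 nM) with biotinylated tetra-acetylated H4 peptide (25-50 nM), Eu-cryptate streptavidin and XL665 anti-His, in HEPES pH 7.4/phosphate/KF buffer, 0.2% DMSO. After 2 h at room temperature, TR-FRET 665/620 nm ratio read; IC50 from dose-response curves.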

hIL-6 mRNA = test: Inhibition of hIL-6 mRNA transcription in LPS-stimulated U937 cells; type: cell-based; conditions: Homo sapiens, U-937; PMA-differentiated U937 cells, 1 h pretreatment, 1 ug/mL LPS stimulation, 3 h; read-out: IL-6 activity (Inhibition of hIL-6 mRNA Transcription)
Procedure: In this example, hIL-6 mRNA in tissue culture cells was quantitated to measure the transcriptional inhibition of hIL-6 when treated with a compound of the invention.
Human leukemic monocyte lymphoma U937 cells (CRL-1593.2) were plated at a density of 3.2×10^4 cells per well in a 96-well plate in 100 μL RPMI-1640 containing 10% FBS and penicillin/streptomycin, and differentiated into macrophages for 3 days in 60 ng/mL PMA ([…]) at 37° C. in 5% CO2 prior to the addition of compound. The cells were pretreated for 1 h with increasing concentrations of test compound in 0.1% DMSO prior to stimulation with 1 ug/mL lipopolysaccharide from Escherichia coli. Triplicate wells were used for each concentration. The cells were incubated at 37° C., 5% CO2 for 3 h before the cells were harvested. At time of harvest, media was removed and cells were rinsed in 200 μL PBS. Cells were harvested using the mRNA Catcher PLUS kit according to manufacturer's instructions. The eluted mRNA was then used in a one-step quantitative real-time PCR reaction using components of the RNA UltraSense™ One-Step Kit (Life Technologies) together with Applied Biosystems TaqMan® primer-probes for hIL-6 and Cyclophilin. Real-time PCR plates were run on a VIa™ 7 real time PCR machine (Applied Biosystems), data was analyzed, normalizing the Ct values for hIL-6 to an internal control, prior to determining the fold expression of each sample, relative to the control.

human AML MV-4-11 cells = test: Inhibition of cell proliferation in MV4-11 cells (CellTiter Aqueous One); type: cell-based; conditions: for pIC50: MV4-11, 72 h; for Cell Proliferation activity: 72 h
How it was run: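 Exponentially growing MV-4-11 cells (5×10^4/well) were treated immediately with two-fold dilutions of compound from 30 μM to 0.2 μM, in triplicate, for 72 h at 37° C, 5% CO2. Viability was measured by MTS absorbance at 490 nm after 3–4 h. Proliferation relative to DMSO after blank correction gave IC50.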

| Compound | pIC50 (c-myc) | pIC50 [1] | pIC50 (hIL-6 mRNA) | pIC50 (human AML MV-4-11 cells) | Cell Proliferation activity (human AML MV-4-11 cells) |
| --- | --- | --- | --- | --- | --- |
| Cc1noc(C)c1-c1cc(N)c2cnn(Cc3ccccc3)c2c1 [Example Compound 54, 1-benzyl-6-(3,5-dimethylisoxazol-4-yl)-1H-indazol-4-amine] | 5.52 to 6.52 | ≥ 6.52 | 5.52 to 6.52 | 5.52 to 6.52 | – |
| Cc1noc(C)c1-c1cc([N+](=O)[O-])c2[nH]c(=O)n(Cc3ccccc3)c2c1 [Example Compound 15, 1-benzyl-6-(3,5-dimethylisoxazol-4-yl)-4-nitro-1H-benzo[d]imidazol-2(3H)-one] | 5.52 to 6.52 | ≥ 6.52 | 5.52 to 6.52 | 5.52 to 6.52 | – |
| Cc1noc(C)c1-c1cc([N+](=O)[O-])c2nc(NCc3cccnc3)n(Cc3ccccc3)c2c1 [compound 148, 1-benzyl-6-(3,5-dimethylisoxazol-4-yl)-4-nitro-N-(pyridin-3-ylmethyl)-1H-benzo[d]imidazol-2-amine] | 5.52 to 6.52 | ≥ 6.52 | ≥ 6.52 | 5.52 to 6.52 | – |
| Cc1noc(C)c1-c1cnc2nc(N3CCC3)n(CC3CCCC3)c2c1 [compound 209, 4-(2-(azetidin-1-yl)-1-(cyclopentylmethyl)-1H-imidazo[4,5-b]pyridin-6-yl)-3,5-dimethylisoxazole] | 5.52 to 6.52 | ≥ 6.52 | ≥ 6.52 | ≥ 6.52 | – |
| Cc1noc(C)c1-c1cc(N)c2nc(N3CCCC3)n(Cc3ccccc3)c2c1 [compound 140, 1-benzyl-6-(3,5-dimethylisoxazol-4-yl)-2-(pyrrolidin-1-yl)-1H-benzo[d]imidazol-4-amine] | ≥ 6.52 | ≥ 6.52 | ≥ 6.52 | ≥ 6.52 | – |
| Cc1cnn(C)c1-c1cc(N)c2nc(C)n(Cc3ccccc3)c2c1 [compound 82, 1-benzyl-6-(1,4-dimethyl-1H-pyrazol-5-yl)-2-methyl-1H-benzo[d]imidazol-4-amine] | 5.52 to 6.52 | 5.52 to 6.52 | 5.52 to 6.52 | 4.52 to 5.52 | – |
| Cc1noc(C)c1-c1cc(N)c2ncn(Cc3ccc(F)cc3)c2c1 [Example Compound 27, 6-(3,5-dimethylisoxazol-4-yl)-1-(4-fluorobenzyl)-1H-benzo[d]imidazol-4-amine] | 5.52 to 6.52 | ≥ 6.52 | 5.52 to 6.52 | 5.52 to 6.52 | – |
| CCNc1nc2c([N+](=O)[O-])cc(-c3c(C)noc3C)cc2n1C(C)c1ccccc1 (stereo not shown) [compound 127, 6-(3,5-dimethylisoxazol-4-yl)-N-ethyl-4-nitro-1-(1-phenylethyl)-1H-benzo[d]imidazol-2-amine] | ≥ 6.52 | ≥ 6.52 | ≥ 6.52 | ≥ 6.52 | – |
| Cc1noc(C)c1Cn1c(C)nc2ncc(-c3c(C)noc3C)cc21 [Example Compound 60, 4-((6-(3,5-dimethylisoxazol-4-yl)-2-methyl-1H-imidazo[4,5-b]pyridin-1-yl)methyl)-3,5-dimethylisoxazole] | 4.52 to 5.52 | 5.52 to 6.52 | 5.52 to 6.52 | – | Not active |
| Cc1noc(C)c1-c1ccc2ccn(Cc3ccc(F)cc3)c2n1 [Example Compound 49, 4-(1-(4-fluorobenzyl)-1H-pyrrolo[2,3-b]pyridin-6-yl)-3,5-dimethylisoxazole] | 4.52 to 5.52 | 4.52 to 5.52 | 4.52 to 5.52 | 4.52 to 5.52 | – |
| CC(=O)Nc1cn(Cc2ccccc2)c2cc(-c3c(C)noc3C)cnc12 [compound 99, N-(1-benzyl-6-(3,5-dimethylisoxazol-4-yl)-1H-pyrrolo[3,2-b]pyridin-3-yl)acetamide] | 5.52 to 6.52 | ≥ 6.52 | 5.52 to 6.52 | 5.52 to 6.52 | – |
| Cc1noc(C)c1-c1cnc2[nH]c(=O)n([C@H](C)c3ccccc3)c2c1 [compound 218, (R)-6-(3,5-dimethylisoxazol-4-yl)-1-(1-phenylethyl)-1H-imidazo[4,5-b]pyridin-2(3H)-one] | 5.52 to 6.52 | ≥ 6.52 | 5.52 to 6.52 | 4.52 to 5.52 | – |
| Cc1noc(C)c1-c1cnc2c(c1)ncn2Cc1ccc(Cl)cc1 [Example Compound 42, 4-(3-(4-chlorobenzyl)-3H-imidazo[4,5-b]pyridin-6-yl)-3,5-dimethylisoxazole] | 4.52 to 5.52 | 5.52 to 6.52 | 4.52 to 5.52 | 4.52 to 5.52 | – |
| CNC(=O)c1nc2ncc(-c3c(C)noc3C)cc2n1Cc1ccccc1 [compound 221, 1-benzyl-6-(3,5-dimethylisoxazol-4-yl)-N-methyl-1H-imidazo[4,5-b]pyridine-2-carboxamide] | 5.52 to 6.52 | ≥ 6.52 | 5.52 to 6.52 | 5.52 to 6.52 | – |
| CCn1c(=O)n(Cc2ccccc2)c2cc(-c3c(C)noc3C)ccc21 [compound 122] | 5.52 to 6.52 | ≥ 6.52 | 5.52 to 6.52 | ≥ 6.52 | – |
| Cc1noc(C)c1-c1cc(NCc2ccccc2)c2ncn(Cc3ccccc3)c2c1 [Example Compound 9, N,1-Dibenzyl-6-(3,5-dimethylisoxazol-4-yl)-1H-benzo[d]imidazol-4-amine] | 4.52 to 5.52 | 4.52 to 5.52 | 4.52 to 5.52 | 4.52 to 5.52 | – |
| Cc1noc(C)c1-c1cc2c(ncn2Cc2ccccc2)c(N)n1 [Example Compound 33, 1-benzyl-6-(3,5-dimethylisoxazol-4-yl)-1H-imidazo[4,5-c]pyridin-4-amine] | 5.52 to 6.52 | ≥ 6.52 | 5.52 to 6.52 | 4.52 to 5.52 | – |
| Cc1noc(C)c1-c1cc(N)c2[nH]c(=O)n(Cc3ccc(O)cc3)c2c1 [compound 129, 4-amino-6-(3,5-dimethylisoxazol-4-yl)-1-(4-hydroxybenzyl)-1H-benzo[d]imidazol-2(3H)-one] | ≥ 6.52 | ≥ 6.52 | ≥ 6.52 | 5.52 to 6.52 | – |
| Cc1noc(C)c1-c1cnc2nc(C)n(Cc3ccc(Cl)cc3Cl)c2c1 [Example Compound 61, 4-(1-(2,4-dichlorobenzyl)-2-methyl-1H-imidazo[4,5-b]pyridin-6-yl)-3,5-dimethylisoxazole] | 5.52 to 6.52 | ≥ 6.52 | 5.52 to 6.52 | 4.52 to 5.52 | – |
| Cc1noc(C)c1-c1cc([N+](=O)[O-])c2nc(C)n(CC3CC3)c2c1 [Example Compound 14, 4-(1-(cyclopropylmethyl)-2-methyl-4-nitro-1H-benzo[d]imidazol-6-yl)-3,5-dimethylisoxazole] | 5.52 to 6.52 | ≥ 6.52 | 5.52 to 6.52 | 4.52 to 5.52 | – |
| Cc1noc(C)c1-c1cc(N)c2nc(N3CCOCC3)n(Cc3ccccc3)c2c1 [compound 87, 1-benzyl-6-(3,5-dimethylisoxazol-4-yl)-2-morpholino-1H-benzo[d]imidazol-4-amine] | ≥ 6.52 | ≥ 6.52 | ≥ 6.52 | ≥ 6.52 | – |
| CC(=O)Nc1cc(-c2c(C)noc2C)cc2c1[nH]c(=O)n2Cc1ccccc1 [compound 111, N-(1-benzyl-6-(3,5-dimethylisoxazol-4-yl)-2-oxo-2,3-dihydro-1H-benzo[d]imidazol-4-yl)acetamide] | ≥ 6.52 | ≥ 6.52 | ≥ 6.52 | ≥ 6.52 | – |
| Cc1noc(C)c1-c1cc2c(c(C)nn2Cc2ccc(F)cc2)[n+]([O-])c1 [Example Compound 24, 6-(3,5-dimethylisoxazol-4-yl)-1-(4-fluorobenzyl)-3-methyl-1H-pyrazolo[4,3-b]pyridine-4-oxide] | 4.52 to 5.52 | ≥ 6.52 | 5.52 to 6.52 | – | Not active |
| Cc1noc(C)c1-c1cc(N)c2nc(NCc3ccccc3)n(Cc3ccccc3)c2c1 [compound 152, N2,1-dibenzyl-6-(3,5-dimethylisoxazol-4-yl)-1H-benzo[d]imidazole-2,4-diamine] | ≥ 6.52 | ≥ 6.52 | ≥ 6.52 | 5.52 to 6.52 | – |
| Cc1noc(C)c1-c1cnc2nc(C)n(Cc3ccc(C(N)=O)cc3)c2c1 [Example Compound 38, 4-((6-(3,5-dimethylisoxazol-4-yl)-2-methyl-1H-imidazo[4,5-b]pyridin-1-yl)methyl)benzamide] | 4.52 to 5.52 | ≥ 6.52 | 4.52 to 5.52 | – | Not active |
